For series [1], the target named is mouse AHR (Mus musculus, UniProt P30561). Kind of series: Mouse AHR agonist luciferase assay (6x XRE Nano-luc reporter in Hepa1-6 cells).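 Also: stable Hepa1-6 reporter line, 4–24 h exposure, 11-point serial dilution, Nano-Glo luminescence as fold over medium-only baseline, EC50 from four-parameter fit of activation fold.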
Experimental: The reporter gene plasmid was transfected into mouse hepatoma Hepa1-6 cells by a conventional liposome transfection method in the art, and stably expressing cells were selected by puromycin for the mouse AHR agonist luciferase assay.
On day one, the stably expressing reporter gene Hepa1-6 cell line was counted and seeded into a white opaque 96-well plate at a density of 1×10^4 cells per well −8×10^4 cells per well using 100 μL of phenol red-free Dulbecco's Modified Eagle Medium (DMEM) (DMEM without phenol red, 10% fetal bovine serum). The cells were cultured in an incubator maintained at 37° C. with 5% CO2 for 24 hours.
Test compounds were prepared as 10 mM stock solutions in DMSO and stored at 4° C. protected from light. Before treatment, the compound stock solutions, positive control compounds (e.g., dioxin, ITE, or kynurenine), and a negative control compound (DMSO) were subjected to preliminary dilution (determined based on pre-experiments) with complete medium without tryptophan and phenol red, followed by 3- to 20-fold serial dilutions to 11 concentration points to obtain 10× dilution solutions. When treating the cells, 10 μL of medium was first aspirated from the 96-well plate containing the seeded cells, and then 10 μL of the serially diluted 10× dilution solution was added. Each compound was tested in duplicate, and each duplicate experiment included a well with a concentration of 0 (i.e., containing only medium) to determine the baseline. The reporter cells were returned to the incubator and incubated for 4 to 24 hours after treatment.
After treatment, 100 μL/well of Nano-Glo Luciferase Assay Reagent was added to the 96-well plate, and the RLU of each well was measured. The RLU values for the wells with the concentration of 0 on the 96-well plates were averaged to calculate the baseline Ave RLU^Vehicle The activity of AHR induced by the test compounds at different concentrations was calculated according to Formula (1) based on the ratio of RLU^Test Cmpd from the experimental groups to the baseline Ave RLU^Vehicle, to determine the activation fold.
The activation fold and the corresponding compound concentration were fitted using GraphPad Prism 9 with [Agonist] vs. response—variable slope (four parameters) to determine the EC50 of the compound for AHR activation.
For series [2], the target named is T1, human AHR (Homo sapiens, UniProt P35869).
T1 sequence (P35869 11-848): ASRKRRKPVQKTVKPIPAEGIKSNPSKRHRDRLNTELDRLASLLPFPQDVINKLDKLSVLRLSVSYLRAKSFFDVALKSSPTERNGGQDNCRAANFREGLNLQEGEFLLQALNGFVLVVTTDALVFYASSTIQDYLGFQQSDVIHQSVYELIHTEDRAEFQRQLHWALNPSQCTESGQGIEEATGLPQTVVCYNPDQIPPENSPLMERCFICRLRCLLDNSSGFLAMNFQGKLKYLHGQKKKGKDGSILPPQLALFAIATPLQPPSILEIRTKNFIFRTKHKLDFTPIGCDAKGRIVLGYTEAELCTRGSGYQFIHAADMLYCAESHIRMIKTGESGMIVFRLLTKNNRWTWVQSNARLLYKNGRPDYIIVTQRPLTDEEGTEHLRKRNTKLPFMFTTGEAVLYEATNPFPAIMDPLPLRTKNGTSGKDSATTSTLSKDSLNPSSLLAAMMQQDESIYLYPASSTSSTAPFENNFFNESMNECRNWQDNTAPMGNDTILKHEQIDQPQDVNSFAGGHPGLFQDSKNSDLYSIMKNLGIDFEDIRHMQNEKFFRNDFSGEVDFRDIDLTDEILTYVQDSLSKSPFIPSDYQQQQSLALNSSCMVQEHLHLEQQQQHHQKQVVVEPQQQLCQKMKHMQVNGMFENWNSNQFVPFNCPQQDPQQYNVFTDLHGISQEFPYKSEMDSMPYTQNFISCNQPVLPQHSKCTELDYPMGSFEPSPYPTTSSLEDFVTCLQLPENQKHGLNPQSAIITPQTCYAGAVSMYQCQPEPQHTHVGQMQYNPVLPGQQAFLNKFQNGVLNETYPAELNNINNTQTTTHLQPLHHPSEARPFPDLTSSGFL
Kind of series: Human AHR agonist luciferase assay (CYP1A1 promoter Nano-luc reporter in HepG2 cells).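 Also: stably transfected HepG2 clone, DRE-containing 1200 bp promoter region driving Nano-luc, treated 4 to 24 h with 11-point dilutions in tryptophan-free medium, medium-only wells as baseline.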
Experimental: To detect AHR activation, a reporter gene plasmid was constructed by placing the gene sequence from −1200 bp to 0 bp upstream of CYP1A1 in front of a Nano-luc luciferase reporter gene according to conventional construction methods of reporter gene plasmids in the art. The reporter gene plasmid was transfected into human hepatoma HepG2 cells by a conventional liposome transfection method in the art, and stably expressing cells were selected by puromycin. The selected cells were diluted to a concentration of 5 cells/mL and seeded into a 96-well plate at 100 μL/well, and single clones were obtained after growth. A single clone with normal morphology, normal growth, and the highest induction signal was selected for the human AHR agonist luciferase assay.
On day one, the HepG2 monoclonal cell line stably expressing reporter gene was counted and seeded into a white opaque 96-well plate at a density of 1×10^4 cells per well −8×10^4 cells per well using 100 μL of complete medium without tryptophan and phenol red (minimal essential medium (MEM) without tryptophan and phenol red, 10% (v/v) fetal bovine serum, 1× non-essential amino acids, 1× sodium pyruvate, and 1× GlutaMax). The cells were cultured in an incubator maintained at 37° C. with 5% (v/v) CO2 for 24 hours.
Test compounds were prepared as 10 mmol/L stock solutions in dimethyl sulfoxide (DMSO) and stored at 4° C. protected from light. Before treatment, the compound stock solutions, positive control compounds (e.g., dioxin, 2-(1H-indole-3-carbonyl)thiazole-4-carboxylic acid methyl ester (ITE), or kynurenine), and a negative control compound (DMSO) were subjected to preliminary dilution (determined based on pre-experiments) with the complete medium without tryptophan and phenol red, followed by 3- to 20-fold serial dilutions to 11 concentration points to obtain 2× dilution solutions. When treating the cells, 50 μL of medium was first aspirated from the 96-well plate containing the seeded cells, and then 50 μL of the serially diluted 2× dilution solution was added. Each compound was tested in duplicate, and each duplicate experiment included a well with a concentration of 0 (i.e., containing only the medium) to determine the baseline. The reporter cells were returned to the incubator and incubated for 4 to 24 hours after treatment.
After treatment, 100 μL/well of Nano-Glo Luciferase Assay Reagent was added to the 96-well plate, and the relative light unit (RLU) of each well was measured. The RLU values for the wells with the concentration of 0 on the 96-well plates were averaged to calculate the baseline Ave RLU^Vehicle. The activity of AHR induced by the test compounds at different concentrations was calculated according to Formula (1) based on the ratio of RLU^Test Cmpd from the experimental groups to the baseline Ave RLU^Vehicle, to determine the activation fold.
The activation fold and the corresponding compound concentration were fitted using GraphPad Prism 9 with [Agonist] vs. response—variable slope (four parameters) to calculate the EC50 of the compound for AHR activation.

Series [3] deals with T2, rat AHR (Rattus norvegicus, UniProt P41738).
T2 construct: The reporter gene was introduced into a genome of rat hepatoma H-4-II-E cells via lentiviral infection; endogenous in cells; host or cells: H-4-II-E (rat hepatoma) with a lentivirally integrated 6x XRE Nano-luc reporter
T2 sequence (P41738 10-853): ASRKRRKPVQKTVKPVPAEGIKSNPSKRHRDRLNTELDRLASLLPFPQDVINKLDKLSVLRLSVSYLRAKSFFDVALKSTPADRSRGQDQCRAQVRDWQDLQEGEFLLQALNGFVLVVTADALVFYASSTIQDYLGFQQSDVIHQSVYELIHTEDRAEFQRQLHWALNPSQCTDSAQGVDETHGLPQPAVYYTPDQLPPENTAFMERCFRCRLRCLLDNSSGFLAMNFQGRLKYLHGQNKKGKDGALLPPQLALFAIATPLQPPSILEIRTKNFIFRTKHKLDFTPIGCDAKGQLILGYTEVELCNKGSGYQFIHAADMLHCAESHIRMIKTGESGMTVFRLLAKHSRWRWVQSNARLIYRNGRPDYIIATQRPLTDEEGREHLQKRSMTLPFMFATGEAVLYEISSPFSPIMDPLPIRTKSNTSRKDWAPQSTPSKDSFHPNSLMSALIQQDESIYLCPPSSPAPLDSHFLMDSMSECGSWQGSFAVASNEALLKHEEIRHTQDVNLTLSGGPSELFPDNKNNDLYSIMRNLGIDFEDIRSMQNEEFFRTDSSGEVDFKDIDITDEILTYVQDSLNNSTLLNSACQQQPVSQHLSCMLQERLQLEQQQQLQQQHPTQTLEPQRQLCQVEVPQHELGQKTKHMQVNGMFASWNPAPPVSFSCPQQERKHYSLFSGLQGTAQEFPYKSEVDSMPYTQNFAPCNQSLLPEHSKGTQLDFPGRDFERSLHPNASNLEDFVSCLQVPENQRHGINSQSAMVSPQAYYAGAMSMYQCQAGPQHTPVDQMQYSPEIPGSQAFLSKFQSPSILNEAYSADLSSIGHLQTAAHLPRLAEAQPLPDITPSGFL
Briefly: Rat AHR agonist luciferase assay (6x XRE Nano-luc reporter in H-4-II-E cells). In kind it is cell-based. Conditions: AHR activation, rat hepatoma H-4-II-E reporter cells, incubated 4 to 24 hours; read-out: H4IIE EC50. From the text: A lentivirus containing the reporter gene was generated by co-transfecting the transfer plasmid with packaging plasmids into 293T cells using conventional transfection methods in the art, followed by purification. The reporter gene was introduced into a genome of rat hepatoma H-4-II-E cells via lentiviral infection, and cells stably expressing the reporter gene were selected with puromycin for the rat AHR agonist luciferase assay.

[4] abbreviates: read-out: HepG2 EC50, AHR activation, human hepatoma HepG2 reporter cells, incubated 4 to 24 hours.

Where a name gives a salt, the structure may show the parent alone. Read-outs that look alike come from different tables or passages of the source.

Sequence of mouse AHR (P30561 10-805 limits assumed): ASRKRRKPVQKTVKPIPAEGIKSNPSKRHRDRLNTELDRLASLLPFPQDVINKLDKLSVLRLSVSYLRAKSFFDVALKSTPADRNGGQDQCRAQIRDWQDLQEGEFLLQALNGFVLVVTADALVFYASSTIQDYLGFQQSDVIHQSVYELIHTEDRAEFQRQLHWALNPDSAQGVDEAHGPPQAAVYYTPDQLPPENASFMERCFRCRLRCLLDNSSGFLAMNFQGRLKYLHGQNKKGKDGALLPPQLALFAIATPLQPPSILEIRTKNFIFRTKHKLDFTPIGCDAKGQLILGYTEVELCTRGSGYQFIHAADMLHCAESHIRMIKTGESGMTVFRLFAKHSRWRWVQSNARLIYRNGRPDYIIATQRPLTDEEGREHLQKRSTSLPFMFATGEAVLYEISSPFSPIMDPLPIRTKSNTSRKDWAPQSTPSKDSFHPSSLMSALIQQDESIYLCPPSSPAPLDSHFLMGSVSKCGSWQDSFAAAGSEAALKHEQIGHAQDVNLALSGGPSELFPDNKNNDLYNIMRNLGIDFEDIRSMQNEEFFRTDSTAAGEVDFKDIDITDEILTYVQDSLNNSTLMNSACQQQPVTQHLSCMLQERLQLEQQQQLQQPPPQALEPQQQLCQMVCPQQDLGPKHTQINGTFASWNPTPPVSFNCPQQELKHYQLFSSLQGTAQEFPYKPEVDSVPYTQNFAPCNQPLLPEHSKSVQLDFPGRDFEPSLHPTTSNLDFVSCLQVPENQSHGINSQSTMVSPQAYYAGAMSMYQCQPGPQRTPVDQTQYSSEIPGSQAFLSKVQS
Sequence of mouse AHR (P53762 whole entry partner): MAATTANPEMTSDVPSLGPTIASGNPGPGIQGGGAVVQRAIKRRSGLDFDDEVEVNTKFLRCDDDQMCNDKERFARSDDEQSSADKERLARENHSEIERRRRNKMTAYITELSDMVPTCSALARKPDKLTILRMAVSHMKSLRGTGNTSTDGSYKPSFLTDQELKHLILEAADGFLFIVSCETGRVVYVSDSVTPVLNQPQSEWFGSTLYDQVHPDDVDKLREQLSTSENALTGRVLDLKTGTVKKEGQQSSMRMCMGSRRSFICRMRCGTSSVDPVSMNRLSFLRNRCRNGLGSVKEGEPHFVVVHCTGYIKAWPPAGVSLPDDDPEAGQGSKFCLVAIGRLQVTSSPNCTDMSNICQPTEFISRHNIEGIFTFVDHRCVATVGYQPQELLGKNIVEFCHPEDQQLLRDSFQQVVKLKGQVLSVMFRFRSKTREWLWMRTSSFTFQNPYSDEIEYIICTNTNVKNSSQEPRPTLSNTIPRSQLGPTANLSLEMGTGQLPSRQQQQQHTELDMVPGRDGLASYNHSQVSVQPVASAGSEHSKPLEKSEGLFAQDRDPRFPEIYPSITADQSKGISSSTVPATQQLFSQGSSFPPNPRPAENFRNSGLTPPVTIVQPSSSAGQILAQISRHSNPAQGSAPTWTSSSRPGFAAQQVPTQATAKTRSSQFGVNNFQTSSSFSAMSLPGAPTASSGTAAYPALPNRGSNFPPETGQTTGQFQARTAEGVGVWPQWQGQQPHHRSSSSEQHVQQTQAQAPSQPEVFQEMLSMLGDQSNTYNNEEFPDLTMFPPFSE

One may read the EC50 as the concentration giving half of the maximal effect. `O=C(c1nc(C2(F)CCOC2=O)cs1)c1c[nH]c2cc(F)ccc12` (centres unmarked) [Compound 3-2]: the figures for the EC50 in series [1] and in series [2] were < 100 nM and < 500 nM, respectively. Take `CN1CCC(c2csc(C(=O)c3c[nH]c4cc(F)ccc34)n2)C1=O` (centres unmarked) [Compound 7-2]: the EC50 is 2000 to 100000 nM in series [3] and < 500 nM in series [2]. Regarding `O=C(c1nc(C2CCOC2=O)cs1)c1c[nH]c2ccccc12` (single isomer, unassigned) [Compound 1-isomer-A], the EC50 in series [1] was < 100 nM; in series [3] it was ≤ 10 nM; in series [2] it was < 500 nM.

Turning to `O=C(c1nc(C2CCOC2=O)cs1)c1c[nH]c2ccccc12` (single isomer, unassigned) [Compound 1-isomer-B], the EC50 in series [1] (read-out: Hepa 1-6 EC50, AHR activation, mouse hepatoma Hepa1-6 reporter cells, incubated 4 to 24 hours) is < 100 nM; in series [3], ≤ 10 nM. For `C[C@@H]1C[C@H](c2csc(C(=O)c3c[nH]c4ccccc34)n2)C(=O)O1` [Compound 8-cis-1], in series [2] (setting [4]), the concentration giving a half-maximal response (EC50) was < 500 nM. Consider `COc1ccc2[nH]cc(C(=O)c3nc(C4(O)CCOC4=O)cs3)c2c1` (centres unmarked) [Compound 2-5], for which the EC50 in series [1] is < 100 nM; in series [2], < 500 nM.

On to `O=C(c1nc(C2CCOC2=O)cs1)c1c[nH]c2cc3c(cc12)OCO3` (centres unmarked) [Compound 1-6], for which the EC50 in series [1] was < 100 nM; in series [3], ≤ 10 nM; in series [2], < 500 nM. Regarding `COCCOCCOCCOCC(=O)n1cc(C(=O)c2nc(C3CCOC3=O)cs2)c2ccccc21` (centres unmarked) [Compound 15, 3-{2-[1-(3,6,9,12-tetraoxatridecanoyl)-1H-indole-3-carbonyl]thiazol-4-yl}dihydrofuran-2(3H)-one], the EC50 in series [1] fell in the range of 100 to 2000 nM; in series [2], 500 to 2000 nM. Take `C[C@@H]1C[C@@H](c2csc(C(=O)c3c[nH]c4ccccc34)n2)C(=O)O1` [Compound 8-trans-1]: the EC50 in series [2] (setting [4]) is < 500 nM. On to `CC(C)[C@H](N)C(=O)n1cc(C(=O)c2nc(C3CCOC3=O)cs2)c2ccccc21` (stereo partly drawn) [Compound 9, 3-[2-({1-[(2S)-2-amino-3-methylbutanoyl]indol-3-yl}carbonyl)-1,3-thiazol-4-yl]tetrahydrofuran-2-one hydrochloride], for which the EC50 in series [1] was in the range of 100 to 2000 nM; in series [2], 500 to 2000 nM.

`COc1ccc2c(C(=O)c3nc(C4CC(C)OC4=O)cs3)c[nH]c2c1` (centres unmarked) [Compound 8-3]: the EC50 in series [1] is < 100 nM; in series [2], < 500 nM. As to `COc1ccc2c(C(=O)c3nc(C4(Cl)CCOC4=O)cs3)c[nH]c2c1` (centres unmarked) [Compound 4-3], the EC50 in series [2] was < 500 nM. The same measure, in the same setting: in the case of `N#Cc1ccc2c(C(=O)c3nc(C4CCOC4=O)cs3)c[nH]c2c1` (centres unmarked) [Compound 1-9] it was < 500 nM; in that of `O=C(c1nc(C2(Cl)CCOC2=O)cs1)c1c[nH]c2ccc(F)cc12` (centres unmarked) [Compound 4-4], < 500 nM. As for `COc1ccc2[nH]cc(C(=O)c3nc(C4(F)CCOC4=O)cs3)c2c1` (centres unmarked) [Compound 3-5], the EC50 in series [2] is 500 to 2000 nM. Regarding `CC1CC(c2csc(C(=O)c3c[nH]c4cc5c(cc34)OCO5)n2)C(=O)O1` (centres unmarked) [Compound 8-6], the EC50 was < 100 nM in series [1] and < 500 nM in series [2].

On to `CC1CC(c2csc(C(=O)c3c[nH]c4ccc(F)cc34)n2)C(=O)O1` (centres unmarked) [Compound 8-4], for which the EC50 was < 100 nM in series [1] and < 500 nM in series [2]. `COc1ccc2c(C(=O)c3nc(C4CCN(C)C4=O)cs3)c[nH]c2c1` (centres unmarked) [Compound 7-3]: the EC50 in series [3] is 2000 to 100000 nM; in series [2] it was < 500 nM. Take `Cc1ccc2c(C(=O)c3nc(C4CCOC4=O)cs3)c[nH]c2c1` (centres unmarked) [Compound 1-8]: in series [2], the EC50 was < 500 nM. As to `COCCOCCOCCOCC(=O)OCn1cc(C(=O)c2nc(C3CCOC3=O)cs2)c2ccccc21` (centres unmarked) [Compound 14, 3,6,9,12-tetraoxatridecanoic acid {3-[4-(2-oxotetrahydrofuran-3-yl)thiazole-2-carbonyl]-1H-indol-1-yl}methyl ester], the EC50 in series [1] was in the range of 100 to 2000 nM; in series [2] it was 500 to 2000 nM.

For the molecule `CC1CC(c2csc(C(=O)c3c[nH]c4cc(F)ccc34)n2)C(=O)O1` (centres unmarked) [Compound 8-2], the EC50 was < 100 nM in series [1] and < 500 nM in series [2]. The corresponding values for `O=C(c1nc(C2CCOC2=O)cs1)c1cn(CO)c2ccccc12` (centres unmarked) [Compound 10, 3-{2-[1-(hydroxymethyl)indole-3-carbonyl]thiazol-4-yl}tetrahydrofuran-2-one] are 100 to 2000 nM and 500 to 2000 nM. On the same counts, the results for `O=C1OCC=C1c1csc(C(=O)c2c[nH]c3ccccc23)n1` [Compound 5] are < 100 nM and < 500 nM. For the molecule `CN1CCC(c2csc(C(=O)c3c[nH]c4ccc(F)cc34)n2)C1=O` (centres unmarked) [Compound 7-4], the EC50 is 2000 to 100000 nM in series [3] and < 500 nM in series [2]. `C[C@H]1C[C@H](c2csc(C(=O)c3c[nH]c4ccccc34)n2)C(=O)O1` [Compound 8-trans-2]: the EC50 in series [2] (setting [4]) was < 500 nM. With `O=C(c1nc(C2(F)CCOC2=O)cs1)c1c[nH]c2ccccc12` (centres unmarked) [Compound 3], the EC50 in series [1] is < 100 nM; in series [2], < 500 nM.

With `COc1ccc2c(C(=O)c3nc(C4(F)CCOC4=O)cs3)c[nH]c2c1` (centres unmarked) [Compound 3-3], the EC50 was < 100 nM in series [1] and < 500 nM in series [2]. `O=C(c1nc(C2CCOC2=O)cs1)c1cn(P(=O)(O)O)c2ccccc12` (centres unmarked) [Compound 11]: the EC50 in series [1] lay within 100 to 2000 nM; in series [2] it was 500 to 2000 nM.

`O=C1OCC(O)=C1c1csc(C(=O)c2c[nH]c3ccccc23)n1` [Compound 6] gave an EC50 in series [2] of 500 to 2000 nM.

Consider `O=C(c1nc(C2CCOC2=O)cs1)c1cn(COP(=O)(O)O)c2ccccc12` (centres unmarked) [Compound 12, {3-[4-(2-oxotetrahydrofuran-3-yl)thiazole-2-carbonyl]-1H-indol-1-yl}methylphosphoric acid], for which the EC50 is 100 to 2000 nM in series [1] and 500 to 2000 nM in series [2]. Regarding `O=C(c1nc(C2CCOC2=O)cs1)c1c[nH]c2cc(Cl)ccc12` (centres unmarked) [Compound 1-7], in series [2], the half-maximal effective concentration (EC50) is < 500 nM. Take `O=C(c1nc(C2(F)CCOC2=O)cs1)c1c[nH]c2ccc(F)cc12` (centres unmarked) [Compound 3-4]: the EC50 in series [1] was 100 to 2000 nM; in series [2], < 500 nM. Turning to `C[C@H]1C[C@@H](c2csc(C(=O)c3c[nH]c4ccccc34)n2)C(=O)O1` [Compound 8-cis-2], in series [2] (setting [4]), the EC50 was < 500 nM. As for `COc1ccc2[nH]cc(C(=O)c3nc(C4CC(C)OC4=O)cs3)c2c1` (centres unmarked) [Compound 8-5], the EC50 was < 100 nM in series [1] and < 500 nM in series [2]. With `O=C(c1nc(C2(O)CCOC2=O)cs1)c1c[nH]c2ccc(F)cc12` (centres unmarked) [Compound 2-4], the values for the EC50 in series [1] and in series [2] were < 100 nM and < 500 nM, respectively.

For the molecule `CC(C)[C@H](N)C(=O)OCn1cc(C(=O)c2nc(C3CCOC3=O)cs2)c2ccccc21` (some centres unmarked) [Compound 13, hydrochloride], the EC50 in series [1] was 100 to 2000 nM; in series [2] it was 500 to 2000 nM.

Regarding `CN1CCC(c2csc(C(=O)c3c[nH]c4ccccc34)n2)C1=O` (centres unmarked) [Compound 7], the EC50 in series [3] was 2000 to 100000 nM; in series [2], < 500 nM.

Values taken from patent US20260226041A1 (ARIGENX THERAPEUTICS CO., LTD., priority 2023, published 2026).
